For this test, the system named is ovulation in female rats. In words: Anti-ovulatory activity (AOA) in vivo assay in rats. Also noted: species or system rat. The method, then: As used herein, “LHRH antagonist peptide” is intended to include peptides and peptide analogs which inhibit LHRH activity (i.e., has “LHRH antagonist activity”) in vivo or in vitro. Candidate LHRH antagonist peptides can be assayed, for example, in the animal model described in Corbin and Beattie, Endocrine Res. Commun. 2:1 (1975) (and see infra). In this assay, the LHRH antagonistic activity of a candidate compound is assayed by measuring the antiovulatory activity (AOA) of the compound in rats.
Anti-ovulatory activity (AOA) was measured by an in vivo assay in rats, as described in Corbin and Beattie, Endocrine Res. Commun. 2:1 (1975). In brief, female rats are injected with a candidate LHRH antagonist on the day of proestrus; in general, the candidate LHRH antagonist was dissolved in 0.1% DMSO. The ability of the candidate peptide to inhibit ovulation is measured by determining the number of rats which ovulate. A candidate peptide is considered to have LHRH antagonist qualities if it inhibits ovulation in at least 50% of the treated rats at a dose of 5 μg per rat. Preferred LHRH antagonists inhibit ovulation in at least 50% of rats at a dose of 2 μg per rat, more preferably at a dose of […], and still more preferably at a dose of 0.5 μg per rat.

Turning to “Ac-D-Nal^1, 4-Cl-D-Phe^2, D-Trp^3, D-Arg^6, Lys(COCH2Br)^8, D-Ala^10-LHRH.TFA [Compound 3926]”, the “AO activity (AOA): rats which ovulate / rats treated” value (dose 1 μg per rat) is 6/8@1.0.

Turning to “Ac-D-Nal^1, 4-Cl-D-Phe^2, D-Pal^3, D-Lys^6, Lys(iPr)^8, D-Ala^10-LHRH.TFA [Compound 3505]”, the “AO activity (AOA): rats which ovulate / rats treated” value (dose 1 μg per rat) was 5/8@1 μg.

On to “Ac-D-Nal^1, 4-Cl-D-Phe^2, D-Pal^3,D-Lys(Mts)^6, Lys(iPr)^8, D-Ala^10-LHRH.TFA [Compound 3761]”, for which the “AO activity (AOA): rats which ovulate / rats treated” value (dose 1 μg per rat) is recorded as 7/8@1.0.

Take “Ac-D-Nal^1, 4-Cl-D-Phe^2, D-Pal^3, Lys(Otac)^5, D-Lys(Otac)^6, Lys(iPr)^8, D-Ala^10-LHRH.TFA [Compound 3502]”: the “AO activity (AOA): rats which ovulate / rats treated” value (dose 1 μg per rat) is listed as 6/8@1 μg.

As to “Ac-D-Nal^1, 4-Cl-D-Phe^2, D-Pal^3, N-Me-Tyr^5, D-Lys(Ac)^6, Lys(iPr)^8, D-Ala^10-LHRH.TFA [Compound 3829]”, the “AO activity (AOA): rats which ovulate / rats treated” value (dose 1 μg per rat) is given as 8/8@1.0.

With “Ac-D-Nal^1, 4-Cl-D-Phe^2, D-Pal^3, D-Lys(AcGly)^6, Lys(iPr)^8, D-Ala^10-LHRH.TFA [Compound 3759]”, the “AO activity (AOA): rats which ovulate / rats treated” value (dose 1 μg per rat) is 5/8@1.0.

Consider “Ac-Sar^1, 4-Cl-D-Phe^2, L-1-Nal^3, D-Pal(iPr)^6, Lys(iPr)^8, D-Ala^10-LHRH.2TFA [Compound 3773]”, for which the “AO activity (AOA): rats which ovulate / rats treated” value (dose 1 μg per rat) is listed as 7/8@1.0.

In the case of “Ac-D-Nal^1, 4-Cl-D-Phe^2, D-Pal^3, D-Lys(iPrNic)^5, D-Lys(iPrNic)^6, Lys(iPr)^8, D-Ala^10-LHRH.TFA [Compound 3553]”, the “AO activity (AOA): rats which ovulate / rats treated” value (dose 1 μg per rat) is recorded as 8/8@1 μg.

For the substance “Ac-D-Nal^1, 4-Cl-D-Phe^2, D-Pal^3, D-Glu(Amp)^6, Lys(iPr)^8, D-Ala^10-LHRH.TFA [Compound 3511]”, the “AO activity (AOA): rats which ovulate / rats treated” value (dose 1 μg per rat) is reported as 7/8@1 μg.

Take “Ac-D-Nal^1, 4-Cl-D-Phe^2, D-Pal^3, N-Me-Ala^5, D-Pal(iPr)^6, Lys(iPr)^8, D-Ala^10-LHRH.2TFA [Compound 3757]”: the “AO activity (AOA): rats which ovulate / rats treated” value (dose 1 μg per rat) is 7/8@1.0.

For “Ac-D-Nal^1, 4-Cl-D-Phe^2, D-Pal^3, Cit^5, D-Cit^6, Lys(iPr)^8, D-Ala^10-LHRH.TFA [Compound 3431]”, where the note is “dose 1 μg per rat”, the “AO activity (AOA): rats which ovulate / rats treated” value is reported as 6/8@1 μg.

Consider “Ac-D-Qal^1, 4-Cl-D-Phe^2, D-Pal^3, D-Lys(Otac)^6, Lys(iPr)^8, D-Ala^10-LHRH.TFA [Compound 3802]”, for which the “AO activity (AOA): rats which ovulate / rats treated” value (dose 1 μg per rat) is listed as 5/8@1.0.

Turning to “Ac-D-Nal^1, 4-Cl-D-Phe^2, D-Pal^3, Lys(iPr)^5, D-Lys(4HBc)^6, Lys(iPr)^8, D-Ala^10-LHRH.2TFA [Compound 3745]”, the “AO activity (AOA): rats which ovulate / rats treated” value (dose 1 μg per rat) was 6/8@1.0.

As to “Ac-D-Nal^1, 4-Cl-D-Phe^2, D-Pal^3, Pal^5, D-Cit^6, Lys(iPr)^8, D-Ala^10-LHRH.TFA [Compound 3432]”, where the note is “dose 1 μg per rat”, the “AO activity (AOA): rats which ovulate / rats treated” value is recorded as 7/8@1 μg.

For “Ac-D-Nal^1, 4-Cl-D-Phe^2, D-Trp^3, D-Arg^6, Met^8, D-Ala^10-LHRH.TFA [Compound 3880]”, the “AO activity (AOA): rats which ovulate / rats treated” value (dose 1 μg per rat) is 8/8@1.0.

On to “Ac-D-Nal^1, 4-Cl-D-Phe^2, D-Pal^3, D-Lys(ONic)^6, Lys(iPr)^8, D-Ala^10-LHRH.TFA [Compound 3507]”, for which the “AO activity (AOA): rats which ovulate / rats treated” value (dose 1 μg per rat) was 1/8@μg. The “AO activity (AOA), in words” value (rat, in vivo) is on record as “high AOA”.

Turning to “Ac-D-Nal^1, 4-Cl-D-Phe^2, D-Pal^3, Arg^5, D-His^6, Trp^7, Orn^8, D-Ala^10-LHRH.TFA [Compound 3854]”, the “AO activity (AOA): rats which ovulate / rats treated” value (dose 5 μg per rat) is given as 6/8@5.0.

For the substance “Ac-D-Nal^1, C^αMe-4Cl-Phe^2, D-Pal^3, N^αMe-Tyr^5, D-Pal(iPr)^6, Lys(iPr)^8, D-Ala^10-LHRH.TFA [Compound 3541]”, the “AO activity (AOA): rats which ovulate / rats treated” value (dose 1 μg per rat) is 1/8@1 μg.

As to “Ac-D-Nal^1, 4-Cl-D-Phe^2, D-Pal^3, D-Pal(CH2COOH)^6, Lys(iPr)^8, D-Ala^10-LHRH.TFA [Compound 3770]”, where the note is “dose 1 μg per rat”, the “AO activity (AOA): rats which ovulate / rats treated” value was 6/8@1.0.

In the case of “Ac-D-Nal^1, 4-Cl-D-Phe^2, D-Pal^3, D-Lys(2-pyrimidylthio)acetic)^6, Lys(iPr)^8, D-Ala^10-LHRH.TFA [Compound 3960]”, the “AO activity (AOA): rats which ovulate / rats treated” value (dose 1 μg per rat) is recorded as 5/8@1.00.

For “Ac-D-Nal^1, 4-Cl-D-Phe^2, D-Pal^3, D-Lys(Dodac)^6, Lys(iPr)^8, D-Ala^10-LHRH.TFA [Compound 3803]”, the “AO activity (AOA): rats which ovulate / rats treated” value (dose 1 μg per rat) is on record as 2/8@1.0.

Regarding “Ac-D-Nal^1, 4-Cl-D-Phe^2, D-Pal^3, Lys(TFAc)^6, Lys(iPr)^8, D-Ala^10-LHRH.2TFA [Compound 3546]”, the “AO activity (AOA): rats which ovulate / rats treated” value (dose 1 μg per rat) is 6/8@1 μg.

For “Ac-D-Nal^1, 4-Cl-D-Phe^2, D-Pal^3, Lys^5, D-Pal(iPr)^6, Lys(iPr)^8, D-Ala^10-LHRH.4TFA [Compound 3548]”, the “AO activity (AOA): rats which ovulate / rats treated” value (dose 1 μg per rat) is reported as 6/8@1 μg.

For the substance “Ac-D-Nal^1, 4-Cl-D-Phe^2, D-Pal^3, Ser^5, D-Pal(iPr)^6, Lys(iPr)^8, D-Ala^10-LHRH.2TFA [Compound 3743]”, the “AO activity (AOA): rats which ovulate / rats treated” value (dose 1 μg per rat) is listed as 8/8@1.0.

For “Ac-Sar^1, 4-Cl-D-Phe^2, D-1-Nal^3, D-Pal(iPr)^6, Lys(iPr)^8, D-Ala^10-LHRH.2TFA [Compound 3772]”, under “dose 1 μg per rat”, the “AO activity (AOA): rats which ovulate / rats treated” value was 8/8@1.0.

“Ac-D-Nal^1, 4-Cl-D-Phe^2, D-Pal^3, Lys(Pyz)^5, D-Lys(Pyz)^6, Lys(iPr)^8, D-Ala^10-LHRH.TFA [Compound 3504]”: the “AO activity (AOA): rats which ovulate / rats treated” value (dose 1 μg per rat) is recorded as 4/8@1 μg.

With “Ac-D-Nal^1, 4-Cl-D-Phe^2, D-Pal^3, D-Glu(Mop)^6, Lys(iPr)^8, D-Ala^10-LHRH.2TFA [Compound 3549]”, the “AO activity (AOA): rats which ovulate / rats treated” value (dose 1 μg per rat) is on record as 6/8@1 μg.

For “Ac-D-Nal^1, 4-Cl-D-Phe^2, D-Pal^3, D-Dap(COCH2S^+Me2)^6, D-Ala^10-LHRH.2TFA [Compound 3969]”, the “AO activity (AOA): rats which ovulate / rats treated” value (dose 1 μg per rat) is 3/8@1.00.

For “Ac-D-Nal^1, 4-Cl-D-Phe^2, D-Pal^3, D-HomoArg(NO2)^6, Lys(iPr)^8, D-Ala^10-LHRH.TFA [Compound 3436]”, the “AO activity (AOA): rats which ovulate / rats treated” value (dose 1 μg per rat) is given as 7/8@1 μg.

In the case of “Ac-D-Nal^1, 4-Cl-D-Phe^2, D-Pal^3, Lys(CNa)^5, D-Lys(CNa)^6, Lys(iPr)^8, D-Ala^10-LHRH.2TFA [Compound 3551]”, the “AO activity (AOA): rats which ovulate / rats treated” value (dose 1 μg per rat) is recorded as 6/8@1 μg.

On to “Ac-D-Nal^1, 4-Cl-D-Phe^2, D-Pal^3, Asn^5, D-Pal(iPr)^6, Lys(iPr)^8, D-Ala^10-LHRH.2TFA [Compound 3744]”, for which the “AO activity (AOA): rats which ovulate / rats treated” value (dose 1 μg per rat) is given as 7/8@1.0.

Regarding “Ac-D-Nal^1, 4-Cl-D-Phe^2, D-Pal^3, Lys(ONic)^5, D-Lys(ONic)^6, Lys(iPr)^8, D-Ala^10-LHRH.TFA [Compound 3503]”, the “AO activity (AOA): rats which ovulate / rats treated” value (dose 1 μg per rat) was 6/8@1 μg.

For the substance “Ac-D-Nal^1, 4-Cl-D-Phe^2, D-Pal^3, D-Lys(HomoPro)^6, Lys(iPr)^8, D-Ala^10-LHRH.TFA [Compound 3439]”, the “AO activity (AOA): rats which ovulate / rats treated” value (dose 1 μg per rat) is reported as 2/8@1 μg.

As for “Ac-D-Nal^1, 4-Cl-D-Phe^2, D-Pal^3, D-Lys(3-pyridineacetic)^6, Lys(iPr)^8, D-Ala^10-LHRH.TFA [Compound 3440]”, the “AO activity (AOA): rats which ovulate / rats treated” value (dose 1 μg per rat) is 2/8@1 μg.

(Values after US7071165B2, “LHRH antagonist peptides” (Indiana University Research and Technology Corporation, priority 1995, dated 2006).)
